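Growth conditions: 96-well plates. Treatment: test compound, 48 hours, 5 concentrations. Analysis: linear interpolation between bracketing concentrations; unreached endpoints set to highest concentration. TGI: total growth inhibition.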 Where only a bound is given, the exact number is not on record here.

Some test systems named below: CCRF-CEM leukemia; LOX IMVI melanoma; BT-549 breast; SK-MEL-5 melanoma; HCC-2998 colon; EKVX NSCLC; T-47D breast; K-562 leukemia; OVCAR-8 ovarian.
What all share (experiment): DTP human tumour cell line panel, 48 h

Take `COc1ccc2c(c1)-c1oc3ccccc3c(=O)c1CO2`: the total growth inhibition concentration (TGI) (in general, the concentration at which net growth stops) in the assay on CCRF-CEM leukemia is > 100 µM; with LOX IMVI melanoma, 44.5 µM; in the assay on BT-549 breast, 96.8 µM; in the assay with SK-MEL-5 melanoma, 36.2 µM; with HCC-2998 colon, > 100 µM; in the assay on EKVX NSCLC it was > 100 µM. Besides, the TGI in the assay with T-47D breast is 68.5 µM; in the assay with K-562 leukemia, > 100 µM; with OVCAR-8 ovarian, > 100 µM.

Turning to `NC(=O)NCCCC(NC(=O)OCCCCCn1ccc(=O)[nH]c1=O)C(=O)O` (configuration not stated), the TGI in the assay on CCRF-CEM leukemia, in the assay on LOX IMVI melanoma, with BT-549 breast, in the assay with HCC-2998 colon, in the assay on EKVX NSCLC and in the assay on T-47D breast was > 100 µM in each case. For the same molecule, the TGI in the assay with K-562 leukemia and with OVCAR-8 ovarian was > 100 µM in each case.

Turning to `COc1cc(-c2nc3nc(N4CCN(C)CC4)ccc3[nH]2)c(OC)c2[nH]c(COC(C)=O)nc12`, the TGI in the assay on LOX IMVI melanoma is 73.6 µM; with BT-549 breast it was > 100 µM; with SK-MEL-5 melanoma, 35.6 µM; in the assay on HCC-2998 colon, 30.6 µM; with EKVX NSCLC it was > 100 µM; in the assay with T-47D breast, > 100 µM. Moreover, the TGI in the assay on K-562 leukemia and with OVCAR-8 ovarian was > 100 µM in each case.

For `CN(C)CCOC1(CC2CCCCC2)CCC(C(C)(C)C)CC1` (configuration not stated), the total growth inhibition concentration (TGI) in the assay on CCRF-CEM leukemia turned out to be 7.62 µM; in the assay on LOX IMVI melanoma, 6.79 µM; in the assay with BT-549 breast, 20.4 µM; in the assay on SK-MEL-5 melanoma it was 4.8 µM; in the assay with HCC-2998 colon it was 11.7 µM; in the assay with EKVX NSCLC, 22 µM. The TGI in the assay with T-47D breast was determined as 13.6 µM; in the assay on K-562 leukemia, 5.93 µM; in the assay with OVCAR-8 ovarian, 19.3 µM.

Regarding `CC(=O)NC1=C(C)C(=O)c2c(nc3n2CC[C@H]3OC(C)=O)C1=O`, the concentration for total growth inhibition (TGI) with CCRF-CEM leukemia is > 100 µM; in the assay with LOX IMVI melanoma it was 2.11 µM; in the assay on BT-549 breast it was 3.01 µM; with SK-MEL-5 melanoma, 8.07 µM; in the assay on HCC-2998 colon it was 7.73 µM; in the assay with EKVX NSCLC, 17.5 µM. Also, the figures for the TGI in the assay with T-47D breast, with K-562 leukemia and in the assay on OVCAR-8 ovarian were 1.37 µM, > 100 µM and 6.75 µM, respectively.

With `O=C(O)c1ccc(Nc2nc3ccccc3nc2C(=O)O)cc1`, the concentration for total growth inhibition (TGI) in the assay with CCRF-CEM leukemia, in the assay with BT-549 breast, with SK-MEL-5 melanoma, in the assay on HCC-2998 colon, in the assay with EKVX NSCLC and in the assay with T-47D breast was > 100 µM in each case. Moreover, the TGI with K-562 leukemia and with OVCAR-8 ovarian was > 100 µM each time.

Consider `O=[N+]([O-])c1ccc(Cl)cc1C=NC12CC3CC(CC(C3)C1)C2`, for which the TGI is 35.6 µM in the assay with CCRF-CEM leukemia; > 70.3 µM in the assay on LOX IMVI melanoma; > 100 µM in the assay on BT-549 breast; > 100 µM in the assay on SK-MEL-5 melanoma; > 100 µM with HCC-2998 colon; > 100 µM with EKVX NSCLC. Moreover, the TGI in the assay with T-47D breast is > 93.8 µM; in the assay with K-562 leukemia, 43 µM; in the assay on OVCAR-8 ovarian, > 100 µM.

For `N#Cc1nc(/C=C/c2ccccc2)oc1N`, the TGI in the assay on CCRF-CEM leukemia, in the assay with LOX IMVI melanoma, in the assay with BT-549 breast, with SK-MEL-5 melanoma, in the assay with HCC-2998 colon and in the assay with EKVX NSCLC was > 100 µM throughout. The TGI with T-47D breast, in the assay on K-562 leukemia and in the assay with OVCAR-8 ovarian was > 100 µM each time.

On to `Cc1n(CC(=O)c2ccccc2)nc2sc(N)n[n+]12`, for which the TGI in the assay with CCRF-CEM leukemia, with LOX IMVI melanoma, in the assay on BT-549 breast, in the assay with SK-MEL-5 melanoma, with HCC-2998 colon and in the assay on EKVX NSCLC was > 100 µM each time. In addition, the TGI in the assay with T-47D breast, with K-562 leukemia and with OVCAR-8 ovarian was > 100 µM in each case.

In the case of `OCCO[P+]1(OCCO)n2c3ccc2C(c2ccccc2)=C2C=CC(=N2)C(c2ccccc2)=c2ccc(n21)=C(c1ccccc1)C1=NC(=C3c2ccccc2)C=C1`, the TGI with CCRF-CEM leukemia turned out to be 0.252 µM; in the assay on BT-549 breast it was 0.305 µM; with SK-MEL-5 melanoma, 0.164 µM; with HCC-2998 colon it was 0.327 µM; in the assay with EKVX NSCLC, 1.04 µM; with T-47D breast, 2.09 µM. Besides, the figures for the concentration for total growth inhibition (TGI) in the assay on K-562 leukemia and with OVCAR-8 ovarian were 18 µM and 0.17 µM, respectively.

Consider `CC(C)(C)OC(=O)NCC(=O)N1CCCN(C(=O)CNC(=O)OC(C)(C)C)CC1`, for which the TGI in the assay with LOX IMVI melanoma, in the assay on BT-549 breast, in the assay with SK-MEL-5 melanoma, in the assay on HCC-2998 colon, in the assay with EKVX NSCLC and in the assay with T-47D breast was > 100 µM each time. For the same molecule, the TGI with K-562 leukemia and in the assay with OVCAR-8 ovarian was > 100 µM throughout.

Consider `COc1ccc(/C=C2\CN(C)Cc3c2[nH]c(=O)c(C#N)c3-c2ccc(OC)cc2)cc1`, for which the concentration for total growth inhibition (TGI) in the assay on CCRF-CEM leukemia, with LOX IMVI melanoma, in the assay on BT-549 breast, in the assay on SK-MEL-5 melanoma, with EKVX NSCLC and in the assay on T-47D breast was > 100 µM in each case. In addition, the TGI in the assay with K-562 leukemia and with OVCAR-8 ovarian was > 100 µM in each case.

Turning to `CCOC(=O)C(C)c1nc2cc(N3CCN(C)CC3)c(F)cc2[nH]c1=O` (configuration not stated), the total growth inhibition concentration (TGI) in the assay with CCRF-CEM leukemia, in the assay with BT-549 breast, in the assay on SK-MEL-5 melanoma, in the assay with EKVX NSCLC, with T-47D breast and in the assay on K-562 leukemia was > 100 µM each time. In the assay with OVCAR-8 ovarian, the total growth inhibition concentration (TGI) was > 100 µM.

For `C#CCOC(=O)C(N)CCCN=C(N)N` (configuration not stated), the TGI in the assay with CCRF-CEM leukemia, in the assay with LOX IMVI melanoma, in the assay on BT-549 breast, in the assay with SK-MEL-5 melanoma, in the assay on HCC-2998 colon and with EKVX NSCLC was > 100 µM in each case. The total growth inhibition concentration (TGI) with T-47D breast and in the assay with OVCAR-8 ovarian was > 100 µM each time.

Consider `Cn1ccc(C(=O)NCCCCCNC(=O)c2ccn(C)c(=O)c2O)c(O)c1=O`, for which the TGI in the assay on CCRF-CEM leukemia, with LOX IMVI melanoma, with BT-549 breast, in the assay with SK-MEL-5 melanoma, with HCC-2998 colon and in the assay with T-47D breast was > 100 µM each time. For the same molecule, in the assay with OVCAR-8 ovarian, the total growth inhibition concentration (TGI) was > 100 µM.

In the case of `COc1ccc(/C=N/n2c(Cc3ccc(Cl)cc3)n[nH]c2=O)c(OC)c1`, the TGI in the assay with CCRF-CEM leukemia was > 100 µM; in the assay on LOX IMVI melanoma, > 100 µM; in the assay with BT-549 breast, 67 µM; with HCC-2998 colon it was > 100 µM; in the assay on EKVX NSCLC it was > 100 µM; with T-47D breast, > 100 µM. Also, the TGI with K-562 leukemia is > 100 µM; in the assay on OVCAR-8 ovarian, 95.5 µM.
